From ChEMBL document CHEMBL3217619, “Design and synthesis of trans-2-substituted-cyclopropane-1-carboxylic acids as the first non-natural small molecule inhibitors of O-acetylserine sulfhydrylase” (Medchemcomm, 2012)
pIC50, pKd: −log10 of the molar value.

Legend:
[1] = Binding affinity to Haemophilus influenzae OASS-A expressed in Escherichia coli assessed as dissociation constant by fluorometric analysis
[2] = Competitive inhibition of Haemophilus influenzae OASS-A expressed in Escherichia coli using OAS/TNB as substrate by ping-pong analysis
[3] = Binding affinity to Haemophilus influenzae OASS-A expressed in Escherichia coli using OAS/TNB as substrate assessed as dissociation constant
[4] = Inhibition of Haemophilus influenzae OASS-A expressed in Escherichia coli using OAS/TNB as substrate by spectrophotometric analysis

Compound	pKd [1]	further results
CCCOC[C@H]1C[C@@H]1C(=O)O (racemic)	5.19	
CC(C)COC(=O)[C@H]1C[C@@H]1C(=O)O (racemic)	3.02	
CC(C)OC(=O)[C@H]1C[C@@H]1C(=O)O (racemic)	3.29	
CCOC[C@H]1C[C@@H]1C(=O)O (racemic)	5.28	
C/C=C/[C@H]1C[C@@H]1C(=O)O (racemic)	5.84	pIC50 [2]: 3.22; pKd [3]: 3.70; pIC50 [4]: 3.15
CC/C=C/[C@H]1C[C@@H]1C(=O)O (racemic)	4.67	
CCOC(=O)[C@H]1C[C@H]1C(=O)O (racemic)	2.33	
CCOC(=O)[C@H]1C[C@@H]1C(=O)O (racemic)	3.12	
